Measured values taken from PubChem BioAssay AID1963426 (Molecular Pharmacology Branch, DTP, NCI, 2024).

System: 186277-243-T-J2-PDC complex spheroid growth, % test/control
Test: Anticancer human tumor 186277-243-T-J2-PDC patient-derived colon adenocarcinoma cell line growth inhibition [Asc]
Conditions: for IC50: curve of first compound; for viability, T/C: stronger effect = lower value
Experimental: Multicellular complex tumor spheroid response to apoptosis pathway targeting inhibitors Alrizomadlin, Pelcitoclax, and Dasminapant in combination with a variety of drugs and investigational agents in selected tumor cell lines
The MDM2 inhibitor alrizomadlin, the Bcl-2/Bcl-xL inhibitor pelcitoclax, and the IAPs inhibitor dasminapant were evaluated both individually and in combination with standard of care and investigational anticancer small molecules within a complex spheroid model of solid tumors. . Complex spheroids include a stromal component modeled by human endothelial cells (HUVEC) and fibroblasts modeled by human mesenchymal stem cells (MSCs). The concentration ranges selected for each drug and investigational agent were based upon clinically achievable concentrations if the clinical Cmax of the agent was known.
Compounds. The drugs and investigational agents: alrizomadlin (APG-115; NSC831270), pelcitoclax (APG-1252; NSC835773), dasminapant (APG-1387;NSC834197), TAK-243 (NSC785004), copanlisib (NSC809693), olaparib (NSC753686), talazoparib (NSC767125), cobimetinib (NSC 768068), eltanexor (KPT-8602, NSC 794443), abemaciclib (NSC 768073), sotorasib (NSC818433), adagrasib (NSC 831453), MRTX-1133 (NSC 836407), Iadademestat (ORY1001, NSC 806812), and RMC-4630 (NSC839698), were obtained from the NCI Developmental Therapeutics Program Chemical Repository. The FDA-approved anticancer drug set is available from the Developmental Therapeutics Program at https://dtp.cancer.gov/organization/dscb/obtaining/available plates.htm. […] The stock solutions were prepared in dimethyl sulfoxide (DMSO, Sigma-Aldrich, St. Louis, MO, cat. D2650) at 800-fold the tested concentration and stored at -70 degrees C prior to their use. All drugs and investigational agents were tested over a range starting from a high concentration at or near the clinical Cmax and decreasing in half-log increments. If the clinical Cmax for an agent had not been determined, the highest concentration tested was 10 microM.
The patient-derived cancer (PDC) cell lines include five colon adenocarcinomas: 186277-243-T-J2-PDC, 616215-338-R-J1-PDC, 439559-082-T-J2-PDC, 463943-066-T-J2-PDC, and 519858-162-T-J1-PDC; three pancreatic carcinomas: 323965-272-R-J2-PDC, 521955-158-R6-J3-PDC, and 521955-158-R2-J5-PDC; two uterine sarcomas: 327498-152-R-J2-PDC and 993429-296-R-J1-PDC; two rhabdomyosarcomas: 755483-174-R-J1-PDC and 772245-204-R-J1-PDC; two soft tissue sarcomas: 126254-015-R-J1-PDC and 494315-158-R-J1-PDC; two malignant fibrous histiocytomas: 317291-083-R-J1-PDC and 596521-263-R-J1-PDC; two breast carcinomas: 171881-019-R-J1-PDC and 885512-296-R-J2-PDC; and one ovarian carcinoma: 6556581-035-R-J-PDC were obtained from the NCI PDMR, (https://pdmr.cancer.gov). The established cell lines HSSY-2 synovial sarcoma (RRID:CVCL 8719), SYO-1 synovial sarcoma (RRID:CVCL_7146), MPNST malignant peripheral neural sheath tumor were obtained from the Sloan Kettering Institute. The following established cell lines were purchased from the American Type Culture Collection (ATCC, Manassas, VA), Sor the received from the NCI repository:, PANC-1 pancreatic carcinoma (CRL-1469, RRID:CVCL_0480), OVCAR-5 ovarian carcinoma (RRID:CVCL_1628), OVCAR-8 ovarian carcinoma (RRID:CVCL_1629), , MCF-7 breast carcinoma (CRL-12584, RRID:CVCL_0031), MDA-MB-231 breast carcinoma (CRL-12532, RRID:CVCL_0062), NCI-H1876 small cell lung carcinoma (CRL-5902, RRID:CVCL_1503), NCI-H510A small cell lung carcinoma (HTB-184, RRID:CVCL_1565), NCI-H1417 (CRL-5869, RRID:CVCL_1469), and NCI-H196 small cell lung carcinoma (CRL-5823, RRID:CVCL_1509). Dr. Peter Houghton (Greehey Children's Cancer Research Institute, University of Texas Health Science Center, San Antonio, TX) provided Rh-18 rhabdomyosarcoma (RRID:CVCL_1659). Pooled donor human umbilical vein endothelial cells (HUVEC, Lonza, cat. CC-2519) and human mesenchymal stem cells (hMSC, Lonza, cat. PT-2501) were purchased from Lonza (Walkersville, MD).
Cell Culture. […]
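Also: spheroids exposed to agents for 7 days.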
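For viability, T/C in this document: 100% = DMSO vehicle control wells.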

Question: For `NC(=O)C(=Cn1cnc(-c2cc(C(F)(F)F)cc(C(F)(F)F)c2)n1)c1cncnc1` + CCN1C(C(=O)NC23CCC(C(=O)O)(CC2)CC3)C(c2cccc(Cl)c2F)C2(C(=O)Nc3cc(Cl)ccc32)C12CCCCC2, which IC50 (second compound 0.03 µM) is on record?
Answer: 0.0704 µM

Question: What about the IC50 (second compound 0.0949 µM) of the same compound?
Answer: 0.0234 µM

Question: And the IC50 (second compound 0.3 µM)?
Answer: 0.00695 µM

Question: And the IC50 (second compound 0.949 µM)?
Answer: < 0.000949 µM

Question: What about the IC50 (second compound 3 µM) of the same compound?
Answer: < 0.000949 µM

Question: What about the viability, T/C (second compound 0.03 µM, first compound 0.000949 µM) of the same compound?
Answer: 111%

Question: And the viability, T/C (second compound 0.03 µM, first compound 0.003 µM)?
Answer: 113%

Question: And the viability, T/C (second compound 0.03 µM, first compound 0.00949 µM)?
Answer: 81.5%

Question: What about the viability, T/C (second compound 0.03 µM, first compound 0.03 µM) of the same compound?
Answer: 60.4%

Question: And the viability, T/C (second compound 0.03 µM, first compound 0.0949 µM)?
Answer: 56.3%

Question: What about the viability, T/C (second compound 0.03 µM, first compound 0.3 µM) of the same compound?
Answer: 5.86%

Question: What about the viability, T/C (second compound 0.0949 µM, first compound 0.000949 µM) of the same compound?
Answer: 109%

Question: And the viability, T/C (second compound 0.0949 µM, first compound 0.003 µM)?
Answer: 83.3%

Question: What about the viability, T/C (second compound 0.0949 µM, first compound 0.00949 µM) of the same compound?
Answer: 51.7%

Question: What about the viability, T/C (second compound 0.0949 µM, first compound 0.03 µM) of the same compound?
Answer: 48%

Question: What about the viability, T/C (second compound 0.0949 µM, first compound 0.0949 µM) of the same compound?
Answer: 46.1%

Question: And the viability, T/C (second compound 0.0949 µM, first compound 0.3 µM)?
Answer: 2.91%

Question: And the viability, T/C (second compound 0.3 µM, first compound 0.000949 µM)?
Answer: 65.2%

Question: And the viability, T/C (second compound 0.3 µM, first compound 0.003 µM)?
Answer: 58.8%

Question: And the viability, T/C (second compound 0.3 µM, first compound 0.00949 µM)?
Answer: 45.3%

Question: And the viability, T/C (second compound 0.3 µM, first compound 0.03 µM)?
Answer: 34.1%

Question: What about the viability, T/C (second compound 0.3 µM, first compound 0.0949 µM) of the same compound?
Answer: 14%

Question: What about the viability, T/C (second compound 0.3 µM, first compound 0.3 µM) of the same compound?
Answer: 0.39%

Question: What about the viability, T/C (second compound 0.949 µM, first compound 0.000949 µM) of the same compound?
Answer: 44.6%

Question: And the viability, T/C (second compound 0.949 µM, first compound 0.003 µM)?
Answer: 40.1%

Question: And the viability, T/C (second compound 0.949 µM, first compound 0.00949 µM)?
Answer: 25.3%

Question: What about the viability, T/C (second compound 0.949 µM, first compound 0.03 µM) of the same compound?
Answer: 7.03%

Question: And the viability, T/C (second compound 0.949 µM, first compound 0.0949 µM)?
Answer: 1.37%

Question: What about the viability, T/C (second compound 0.949 µM, first compound 0.3 µM) of the same compound?
Answer: 0.18%

Question: What about the viability, T/C (second compound 3 µM, first compound 0.000949 µM) of the same compound?
Answer: 24.1%

Question: And the viability, T/C (second compound 3 µM, first compound 0.003 µM)?
Answer: 20.6%

Question: What about the viability, T/C (second compound 3 µM, first compound 0.00949 µM) of the same compound?
Answer: 3.76%

Question: And the viability, T/C (second compound 3 µM, first compound 0.03 µM)?
Answer: 0.85%

Question: And the viability, T/C (second compound 3 µM, first compound 0.0949 µM)?
Answer: 0.44%

Question: And the viability, T/C (second compound 3 µM, first compound 0.3 µM)?
Answer: 0.84%

Question: Which results are given for `NC1CCC(NC2CC2c2ccccc2)CC1` (stereo not given) + CCN1C(C(=O)NC23CCC(C(=O)O)(CC2)CC3)C(c2cccc(Cl)c2F)C2(C(=O)Nc3cc(Cl)ccc32)C12CCCCC2?
Answer: IC50 (second compound 0.03 µM): > 0.1 µM; IC50 (second compound 0.0949 µM): > 0.1 µM; IC50 (second compound 0.3 µM): > 0.1 µM; IC50 (second compound 0.949 µM): > 0.1 µM; IC50 (second compound 3 µM): < 0.000316 µM; viability, T/C (second compound 0.03 µM, first compound 0.000316 µM): 111%; viability, T/C (second compound 0.03 µM, first compound 0.001 µM): 138%; viability, T/C (second compound 0.03 µM, first compound 0.00316 µM): 112%; viability, T/C (second compound 0.03 µM, first compound 0.01 µM): 106%; viability, T/C (second compound 0.03 µM, first compound 0.0316 µM): 123%; viability, T/C (second compound 0.03 µM, first compound 0.1 µM): 113%; viability, T/C (second compound 0.0949 µM, first compound 0.000316 µM): 114%; viability, T/C (second compound 0.0949 µM, first compound 0.001 µM): 132%; viability, T/C (second compound 0.0949 µM, first compound 0.00316 µM): 134%; viability, T/C (second compound 0.0949 µM, first compound 0.01 µM): 131%; viability, T/C (second compound 0.0949 µM, first compound 0.0316 µM): 131%; viability, T/C (second compound 0.0949 µM, first compound 0.1 µM): 141%; viability, T/C (second compound 0.3 µM, first compound 0.000316 µM): 93.4%; viability, T/C (second compound 0.3 µM, first compound 0.001 µM): 97.8%; viability, T/C (second compound 0.3 µM, first compound 0.00316 µM): 94.9%; viability, T/C (second compound 0.3 µM, first compound 0.01 µM): 93.3%; viability, T/C (second compound 0.3 µM, first compound 0.0316 µM): 92.9%; viability, T/C (second compound 0.3 µM, first compound 0.1 µM): 91.3%; viability, T/C (second compound 0.949 µM, first compound 0.000316 µM): 66.3%; viability, T/C (second compound 0.949 µM, first compound 0.001 µM): 69.2%; viability, T/C (second compound 0.949 µM, first compound 0.00316 µM): 66.1%; viability, T/C (second compound 0.949 µM, first compound 0.01 µM): 65.8%; viability, T/C (second compound 0.949 µM, first compound 0.0316 µM): 67.9%; viability, T/C (second compound 0.949 µM, first compound 0.1 µM): 65.7%; viability, T/C (second compound 3 µM, first compound 0.000316 µM): 42.1%; viability, T/C (second compound 3 µM, first compound 0.001 µM): 43.6%; viability, T/C (second compound 3 µM, first compound 0.00316 µM): 44.1%; viability, T/C (second compound 3 µM, first compound 0.01 µM): 39.5%; viability, T/C (second compound 3 µM, first compound 0.0316 µM): 41.4%; viability, T/C (second compound 3 µM, first compound 0.1 µM): 42.8%
